One series is described as follows: physchem. The note with it: for solubility: water, Solubility in water at room temperature. Here is the method: To a stirred colorless solution of (S)-4-acetamidophenyl 2-(tert-butoxycarbonylamino)-4-(methylthio)butanoate (0.5 g, 1.3 mmol) in dioxane (10 mL) was added 40 mL of HCl in dioxane (4M).
For series [1] the following is noted: cited from earlier work.
A further series deals with C57BL6 mice. Put plainly: Acute acetaminophen-induced hepatotoxicity in mice (plasma ALT and AST). As for the experimental part:
Hepatotoxicity was evaluated by measuring standard plasma enzymatic markers (Alanine transaminase (ALT) and Aspartate transaminase (AST)) of liver damage.

Converted amounts (≈) assume the structure as drawn. Structures can show the parent of a compound that is named as a salt. Where two headings read alike, the source gives them in different places. Where only a bound is given, the exact number is not on record here.

`CC(=O)Nc1ccc(OC(=O)C(N)CSSCC(NC(C)=O)C(=O)O)cc1` (centres unmarked) [II-D, 2-acetamido-3-((3-(4-acetamidophenoxy)-2-amino-3-oxopropyl)disulfanyl)propanoic acid] yielded a solubility in “physchem” of 47 mg/mL (≈ 113 mM).

On to `O=C1N[C@H](C(=O)O)CS1` [L-2-oxothiazolidine-4-carboxylate], for which the GSH tissue levels is given as 6.1 μmol/g of tissue in series [1] (administered 30 minutes post-acetaminophen administration) and 5.3 μmol/g of tissue in series [1] (administered 120 minutes post-acetaminophen administration).

`CC(=O)Nc1ccc(OC(=O)C(CSSCC(NC(C)=O)C(=O)O)NC(C)=O)cc1` (centres unmarked) [Example 2, 2-acetamido-3-((2-acetamido-3-(4-acetamidophenoxy)-3-oxopropyl)disulfanyl)propanoic acid]: the melting point fell in the range of 95 to 99 °C.

For the molecule `CC(=O)Nc1ccc(O)cc1` [Acetaminophen, N-(4-hydroxyphenyl)acetamide], the solubility in “physchem” was about 14.3 mg/mL (≈ 94.6 mM). For the same molecule, in the series with C57BL6 mice (mouse, in vivo), the “Treated mice with elevated ALT levels” value was 83% and the “Treated mice with increased AST levels” value is “all”.

Regarding `CSCC[C@H](N)C(=O)Oc1ccc(NC(C)=O)cc1` [Compound (II-A), (S)-4-acetamidophenyl 2-amino-4-(methylthio)butanoate], in the series “physchem”, the solubility worked out at 500 mg/mL (≈ 1770 mM).

`CSCC[C@H](N)C(=O)Oc1ccc(NC(C)=O)cc1` (as salt: HCl) [Compound (II-A), (S)-4-acetamidophenyl 2-amino-4-(methylthio)butanoate]: the melting point lay within 225 to 228 °C.

On to `CC(=O)Nc1ccc(OC(=O)C(N)CSSCC(N)C(=O)Oc2ccc(NC(C)=O)cc2)cc1` (centres unmarked) (as salt: trifluoroacetate) [Example 4, bis(4-acetamidophenyl)3,3′-disulfanediylbis(2-aminopropanoate)di(trifluoroacetate)], for which the melting point was over 300 °C.

`CSCC[C@H](N)C(=O)O` [l-methionine]: the “AST and ALT increases in acetaminophen-treated animals” value in the series on C57BL6 mice (co-administration of equimolar doses of l-methionine and acetaminophen) is on record as “significantly reduced”. Besides, the “Serum AST and ALT levels” value in the series on C57BL6 mice (oral l-methionine alone (167 mg/kg)) is on record as “did not affect”.

For the molecule `CC(=O)Nc1ccc(OC(=O)C(N)CSSCC(NC(C)=O)C(=O)O)cc1` (centres unmarked) [Compound II-D sodium salt, 2-acetamido-3-((3-(4-acetamidophenoxy)-2-amino-3-oxopropyl)disulfanyl)propanoic acid], the “Solubility in water at room temperature” value in “physchem” worked out at 52 mg/mL.

On to `CC(=O)Nc1ccc(OC(=O)C(N)CSSCC(N)C(=O)O)cc1.Cl.Cl` (centres unmarked), for which the melting point lay in the range of 230 to 237 °C.

A word on the solubility: it is how much of the substance goes into solution per volume. Lower therefore signals little dissolved substance. One may read the melting point as the temperature, or range, at which the solid turns liquid.

The record behind these values is patent publication US9951001B2 (Acorda Therapeutics, Inc., priority 2008, dated 2018).
